Results: PubChem BioAssay (NCI)
Where “and” joins values, the source holds several entries; their conditions need not be identical. Equal values may be shown once.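 48-hour exposure; five concentrations; linearly interpolated endpoints. At the GI50, growth is halved. TGI denotes the concentration required for complete inhibition of growth.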

Key:
Experiment in all cases: growth of human tumour cells (NCI), 48 h
SF-295 CNS = system: SF-295 CNS
HCC-2998 colon = system: HCC-2998 colon
HS 578T breast = system: HS 578T breast
A498 renal = system: A498 renal
IGROV1 ovarian = system: IGROV1 ovarian
HL-60(TB) leukemia = system: HL-60(TB) leukemia
TK-10 renal = system: TK-10 renal
RPMI-8226 leukemia = system: RPMI-8226 leukemia
U251 CNS = system: U251 CNS
SF-268 CNS = system: SF-268 CNS

Compound | GI50 (SF-295 CNS) [µM] | TGI (SF-295 CNS) [µM] | GI50 (HCC-2998 colon) [µM] | TGI (HCC-2998 colon) | GI50 (HS 578T breast) [µM] | TGI (HS 578T breast) | GI50 (A498 renal) [µM] | TGI (A498 renal) | GI50 (IGROV1 ovarian) [µM] | TGI (IGROV1 ovarian) | GI50 (HL-60(TB) leukemia) [µM] | TGI (HL-60(TB) leukemia) | GI50 (TK-10 renal) [µM] | TGI (TK-10 renal) | GI50 (RPMI-8226 leukemia) [µM] | TGI (RPMI-8226 leukemia) | GI50 (U251 CNS) [µM] | TGI (U251 CNS) [µM] | GI50 (SF-268 CNS) [µM] | TGI (SF-268 CNS)
CC1=C/C(O)CC(=O)Cc2nc(co2)C(=O)N2CCC=C2C(=O)OC(C(C)C)C(C)/C=C\C(=O)NC/C=C\1 (centres undefined) | 22.3 | > 100 | 16.2 | 31.6 µM and 34.5 µM | > 75.8 | > 100 µM and 59.4 µM | 44.9 | > 84.1 µM and 76.3 µM | 18.6 | 48.2 µM and 36.6 µM | 14.5 | > 100 µM | > 100 | > 100 µM and 96.1 µM | 7.98 | > 100 µM and 43.4 µM | 24.8 | > 100 | 20.9 | 54.4 µM and 43.4 µM
CCOC(=O)Nc1ccc(C(=O)/C=C/c2ccccc2)cc1 | 41.7 | > 100 | 17.1 | 31.6 µM | 30.9 | 86 µM | 26.1 | 72.6 µM | 19.3 | > 100 µM | 31.4 | > 100 µM | 28.9 | 86.5 µM | 3.76 | 22.5 µM | 12.6 | 30.4 | 23.8 | 69 µM
Cc1ccc(NC(=O)N2CCCCC2)cc1[N+](=O)[O-] | > 100 | > 100 | > 100 | > 100 µM | > 100 | > 100 µM | 87.8 | > 100 µM | > 100 | > 100 µM | > 100 | > 100 µM | > 100 | > 100 µM | 90.1 | > 100 µM | > 100 | > 100 | > 100 | > 100 µM
CC(C)c1ccc(/C=N/N=C(N)N)cc1 | 8.13 | 22.4 | 2.04 | 4.78 µM | 11.5 | 36.5 µM | 11.3 | 23.8 µM | 11 | 25.8 µM | 4.36 | 11.3 µM | 12.9 | 26.4 µM | 3.6 | 16.4 µM | 4.63 | 17 |  | 25.1 µM
CNC(=O)/C(=C/c1ccc(OC)cc1)c1cc(OC)c(OC)c(OC)c1 |  | 3.02 |  | 17.7 µM |  | 5.71 µM |  | > 43.4 µM |  | > 100 µM |  | 8.01 µM |  | > 100 µM |  | > 100 µM |  | 23.1 |  | > 84.7 µM
OCc1ncc(-c2ccccc2)s1 | > 100 | > 100 | > 100 | > 100 µM | > 100 | > 100 µM | > 100 | > 100 µM | > 100 | > 100 µM | > 100 | > 100 µM | > 100 | > 100 µM | > 100 | > 100 µM | > 100 | > 100 | > 100 | > 100 µM
CC(=O)N1N=C(c2ccc(Nc3nc(Nc4ccc(F)cc4)nc(Nc4ccc(Cl)cc4)n3)cc2)CC1c1ccc(N(C)C)cc1 (centres undefined) | 9.73 | 37.4 | 2.26 | 7.45 µM | 8.09 | 97.9 µM | 14.4 | 50.5 µM | 2.96 | 15.8 µM | 5.04 | 15.7 µM | 8.59 | 31 µM | 4.15 | > 100 µM | 4.2 | 35.7 | 12.1 | 49.2 µM
Nc1cc(N)cc(Cc2ccccc2)c1 |  | > 100 |  | > 100 µM |  | > 100 µM |  | > 100 µM |  | > 100 µM |  | > 100 µM |  | > 100 µM |  |  |  | > 100 |  | > 100 µM
COc1cccc2c1C(=O)c1c(O)c3c(c(O)c1C2=O)C[C@@](O)(C(C)=O)C[C@@H]3OC1CC(O)C(O)C(C)O1 (some centres undefined) |  |  |  | 12.8 µM |  | 6.93 µM |  | 9.01 µM |  |  |  | 1.94 µM and 1.2 µM |  | 81.3 µM |  | 5.5 µM and 8.53 µM |  |  |  | 9.38 µM and 12.8 µM
CSC(=NC#N)S/C=C/C(=O)c1cccc2ccccc12 | > 100 | > 100 | 63 | > 100 µM | 40.4 | > 100 µM | 40.2 | > 100 µM | 21 | 48.1 µM |  |  | 22.2 | 45.4 µM | 25 | > 100 µM | 31.3 | > 100 | 36.6 | > 100 µM
Clc1ccc(-c2nc(C(Cl)Cl)nc3cc(-c4ccccc4)nn23)cc1 | 1.45 | > 50 | 0.741 | 1.42 µM | 1.38 | > 50 µM | 0.912 | 2.21 µM | 2.4 | > 50 µM |  |  | 2.23 | > 50 µM | 2.54 | > 50 µM | 1.12 | > 50 | 1.7 | > 50 µM
C[n+]1cc2cc3c(cc2c2ccccc21)OCO3 | 3.17 | 30.3 | 3.81 | 19.2 µM | 2 | 7.71 µM | 1.05 | 8.57 µM | 0.982 | 58 µM |  |  | 8.33 | 61.4 µM | 3.39 | 36.4 µM | 1.33 | 11.3 | 0.48 | 2.57 µM
